In the Deep4Chem optical property database one finds emission maximum data, which are given here for 42 compounds.

The nature of this series: solvent given as SMILES.
The mark [1] stands for this setting: in O=P(c1ccccc1)(c1ccccc1)c1ccccc1Oc1ccccc1P(=O)(c1ccccc1)c1ccccc1.

Consider `CCCCCCCCc1ccc(-c2ccc(/C=C(\C#N)c3ccc(-c4cccc5cccc(-c6ccc(/C(C#N)=C/c7ccc(-c8ccc(CCCCCCCC)cc8)cc7)cc6)c45)cc3)cc2)cc1`, for which the emission maximum (in Cc1ccccc1) is 491 nm.

As to `COc1nc(Nc2ccc3ccc4cccc5ccc2c3c45)nc(OC)n1`, the emission maximum stood at 390 nm (in CC#N), 388 nm (in CCCCOCCCC) and 388 nm (in CO).

With `CC(C)CCCN1c2ccccc2CCc2ccccc21`, the emission maximum was 352 nm (in CC#N) and 360 nm (in CO).

As for `CCCCCCCCCCCC#CC#CCCCCCCCCCN1C(=O)c2ccc3c4ccc5c6c(ccc(c7ccc(c2c37)C1=O)c64)C(=O)N(CCCCCCCCCC#CC#CCCCCCCCCCCCC)C5=O`, the emission maximum (in ClC(Cl)Cl) is listed as 535 nm.

For the compound `CC1CC=C(c2ccc(-c3cccs3)s2)CC1` (centres undefined), the emission maximum runs as follows: (in C1CCOC1) 412 nm; (in CC#N) 404 nm; (in CCCCCC) 408 nm; (in CCO) 411 nm; (in OCCOCCO) 414 nm; (in c1ccncc1) 417 nm.

`CCN(CC)c1ccc2cc(-c3nc4ccccc4n3-c3ccccc3)c(=O)oc2c1` had an emission maximum (in ClCCl) of 479 nm.

Regarding `CN(C)c1ccc2c(-c3ccc(N)cc3C(=O)[O-])c3ccc(=[N+](C)C)cc-3oc2c1`, the emission maximum stood at 564 nm (in CCO) and 572 nm (in O).

Turning to `c1ccc2c(c1)ncc1ccc3cnc4ccccc4c3c12`, the emission maximum (in CC#N) worked out at 408 nm.

Consider `C(#Cc1ccccc1)C(C#Cc1ccccc1)=Cc1ccccc1`, for which the emission maximum (in ClC(Cl)Cl) was determined as 392 nm.

For the compound `c1ccc(-c2nc(-c3ccccc3)nc(-c3ccc(-n4c5ccccc5c5cc(-n6c7ccccc7c7ccccc76)ccc54)cc3)n2)cc1`, the emission maximum (in Cc1ccccc1) turned out to be 458 nm and the emission maximum under setting [1] is 475 nm.

In the case of `CCCCCCn1c2c(c3cc(-c4ccc5ccc6cccc7ccc4c5c67)ccc31)-c1c(c3cc(-c4ccc5ccc6cccc7ccc4c5c67)ccc3n1CCCCCC)-c1c(c3cc(-c4ccc5ccc6cccc7ccc4c5c67)ccc3n1CCCCCC)-c1c-2c2cc(-c3ccc4ccc5cccc6ccc3c4c56)ccc2n1CCCCCC`, for the setting “in ClCCl”, the emission maximum amounted to 382 nm.

As to `CC(C)(C)c1ccc(C2=CC(c3ccccc3)=[N+]3C2=Nc2c(-c4ccc(C(C)(C)C)cc4)cc(-c4ccccc4)n2[B-]3(F)F)cc1`, the emission maximum turned out to be 681 nm (in C1CCOC1), 683 nm (in Cc1ccccc1) and 680 nm (in ClC(Cl)Cl).

Under “in ClCCl”, `c1ccc(CSc2c3ccc(=[N+]4CCCCC4)cc-3oc3cc(N4CCCCC4)ccc23)cc1` registered an emission maximum of 619 nm.

As to `O=c1oc2ccccc2c2c1c(=O)oc1ccc3ccc(O)cc3c12`, the emission maximum by setting is: (in CS(C)=O) 506 nm; (in ClCCl) 517 nm.

For the compound `CCN(CC)c1ccc(-c2nc(Oc3ccc(-c4nc5ccccc5[nH]4)cc3)nc(Oc3ccc(-c4nc5ccccc5[nH]4)cc3)n2)cc1`, the emission maximum (in CN(C)C=O) was found to be 431 nm.

Regarding `CC1=C(c2ccc(N(C)C)cc2)C(C)=[N+]2C1=C(c1c(-c3ccccn3)nc3ccccn13)c1c(C)cc(C)n1[B-]2(F)F`, the emission maximum (in ClCCl) is 524 nm.

Under “in CO”, `O=C(O)CCCc1ccc2ccc3cccc4ccc1c2c34` displayed an emission maximum of 375 nm.

Under “in CN(C)C=O”, `COCCC1(CCOC)c2cc(-c3ccc(OC)cc3)ccc2-c2ccc(-c3ccc4c(c3)C(CCOC)(CCOC)c3cc(-c5ccc(OC)cc5)ccc3-4)cc21` had an emission maximum of 395 nm.

For `C(=C1c2ccccc2CCc2ccccc21)c1ccc(-c2cc(-c3ccc(C=C4c5ccccc5CCc5ccccc54)cc3)cc(-c3ccc(C=C4c5ccccc5CCc5ccccc54)cc3)c2)cc1`, the emission maximum (in C1CCOC1) came out at 403 nm.

For `N#C/C=C/c1ccc2ccc3cccc4ccc1c2c34`, the emission maximum (in C1CCOC1) is listed as 425 nm; the emission maximum (in C1COCCO1) came to 421.5 nm; the emission maximum (in C=CC#N) was found to be 439.5 nm; the emission maximum (in CC#N) is 440.5 nm; the emission maximum (in CC(C)=O) is recorded as 433 nm; the emission maximum (in CCCCCC) was determined as 409.5 nm. The emission maximum came to 423 nm (in CCOC(C)=O), 443 nm (in CO), 423 nm (in Cc1ccccc1) and 434 nm (in ClCCl).

On to `CCCCCCCCC1(CCCCCCCC)c2cc(-c3ccc(C#N)cc3)ccc2-c2ccc(-c3ccc(C#N)cc3)cc21`, for which the emission maximum (in ClC(Cl)Cl) is 385 nm.

For the compound `C[Si](C)(c1ccc2cc3ccccc3cc2c1)[Si](C)(C)c1ccc2cc3ccccc3cc2c1`, the emission maximum runs as follows: (in C1CCCCC1) 415 nm; (in CC#N) 413 nm.

In turn, `CCCCCn1c2cc(/C=C/c3ccc(N(c4ccccc4)c4ccccc4)cc3)ccc2c2ccc(/C=C/c3ccc(N(c4ccccc4)c4ccccc4)cc3)cc21` came in with an emission maximum (in Cc1ccccc1) of 451 nm.

Consider `CCN(CC)c1ccc2c(-c3ccc(S(=O)(=O)[O-])cc3S(=O)(=O)[O-])c3ccc(=[N+](CC)CC)cc-3oc2c1`, for which the emission maximum reads like this: (in CC#N) 573 nm; (in CCO) 578 nm; (in CN(C)C=O) 574 nm; (in O) 588 nm.

Consider `Cn1c(=O)c(/N=N/c2cc(S(=O)(=O)O)ccc2S(=O)(=O)O)c(O)c2ccccc21`, for which the emission maximum runs as follows: (in C1CCOC1) 498 nm; (in CC(C)=O) 491 nm; (in CCOC(C)=O) 493 nm; (in CO) 483 nm; (in CS(C)=O) 490 nm; (in Cc1ccccc1) 490 nm. The emission maximum (in ClCCl) is reported as 493 nm and the emission maximum (in O) was 500 nm.

With `CCCC1=C(CCC)c2cccc3c2c(cc2nc4ccccc4nc23)O1`, the emission maximum (in ClCCl) is reported as 563 nm.

Turning to `CC1=[N+]2C(=c3c4c5ccccc5cc5cccc(c6cc(C)n(c36)[B-]2(F)F)c54)C=C1`, the emission maximum is, setting by setting: (in C1CCOC1) 637 nm; (in CCCCCC) 637 nm; (in CO) 637 nm; (in CS(C)=O) 639 nm; (in ClC(Cl)Cl) 637 nm; (in ClCCl) 638 nm.

With `O=S1(=O)c2ccccc2C2(c3cc(-c4ccc(N(c5ccccc5)c5ccccc5)cc4)ccc3-c3ccc(-c4ccc(N(c5ccccc5)c5ccccc5)cc4)cc32)c2ccccc21`, the emission maximum was 460 nm (in ClCCl) and 448 nm (in c1cc(-n2c3ccccc3c3ccccc32)cc(-n2c3ccccc3c3ccccc32)c1).

Where the note is “in C1CCCCC1”, `COc1cccc(OC)c1-c1c2ccccc2c(-c2c(OC)cccc2OC)c2ccccc12` had an emission maximum of 425 nm.

As for `F[B-]1(F)OC(c2ccc(C(F)(F)F)cc2)=Cc2c3ccccc3c3ccccc3[n+]21`, the emission maximum (in ClC(Cl)Cl) was determined as 446 nm.

On to `N#CC1=C(N)n2c(=O)c3ccccc3c(=O)n2C1c1ccccc1` (centres undefined), for which the emission maximum (in CS(C)=O) is 438 nm.

Consider `C1=Cc2nc1c(-c1ccccc1)c1ccc([nH]1)c(-c1ccccc1)c1nc(c(-c3ccccc3)c3ccc([nH]3)c2-c2ccccc2)C=C1`, for which the emission maximum runs as follows: (in CC(=O)N(C)C) 650 nm; (in ClCCl) 651 nm.

In the case of `F[B-]1(F)n2c(c3cccc4cccc2c43)=Nc2ccc3ccccc3[n+]21`, the emission maximum is, setting by setting: (in C1CCOC1) 508 nm; (in CC#N) 505 nm; (in CCCCCC) 502 nm; (in Cc1ccccc1) 511 nm; (in ClCCl) 536 nm.

`COC(=O)c1c(NC(C)(C)C)oc(-c2ccc(-c3ccccc3)cc2)c1C(=O)OC` showed an emission maximum (in CC#N) of 446 nm.

On to `CCCCCCCCCCN1C(=O)c2cc(NCCCOCCO)c3c4c(cc(NCCCOCCO)c(c24)C1=O)C(=O)N(CCCCCCCCCC)C3=O`, for which the emission maximum was determined as 642 nm (in CO) and 640 nm (in ClC(Cl)Cl).

Regarding `CC1(C)C(/C=C/C=C/C=C/C=C2/N(CS(=O)(=O)[O-])c3ccc(S(=O)(=O)[O-])cc3C2(C)C)=[N+](CS(=O)(=O)[O-])c2ccc(S(=O)(=O)[O-])cc21`, the emission maximum (in CO) was determined as 776 nm and the emission maximum (in O) was 771 nm.

`COc1ccc(-n2nc(C#N)c(N3CCCC3)n2)cc1OC` came in with an emission maximum (in CC#N) of 417 nm.

In the case of `C#CCn1c2ccccc2c2cc(/C=C/C3=[N+]4C(=C(c5ccc(I)cc5)c5c(C)c(Cl)c(/C=C/c6ccc7c(c6)c6ccccc6n7CC#C)n5[B-]4(F)F)C(C)=C3Cl)ccc21`, the emission maximum by setting is: (in CC#N) 731 nm; (in CS(C)=O) 749 nm; (in ClC(Cl)Cl) 730 nm.

Consider `CCCCn1c2ccc(/C=C(\C#N)c3ccc([N+](=O)[O-])cc3)cc2c2cc(Cn3c(-c4ccc5c(c4)c4ccccc4n5CCCC)nc4ccccc43)ccc21`, for which the emission maximum is, setting by setting: (in C1CCOC1) 539 nm; (in CC#N) 580 nm; (in CCO) 520 nm; (in CCOC(C)=O) 528 nm; (in CN(C)C=O) 581 nm; (in ClCCl) 568 nm. This compound yielded an emission maximum (in O) of 570 nm and an emission maximum (in c1ccccc1) of 505 nm.

In the case of `O=S1(=O)c2ccccc2Oc2cc(N3c4ccccc4C4(c5ccccc53)c3ccccc3N(c3ccc5c(c3)Oc3ccccc3S5(=O)=O)c3ccccc34)ccc21`, the emission maximum came to 439.83 nm (in Cc1ccccc1) and 464.9 nm under setting [1].

`Cn1c2ccccc2c2cc(/C=C/C3=[O+][B-](F)(F)OC(/C=C/c4ccc5c(c4)c4ccccc4n5C)=C3c3ccccc3)ccc21` had an emission maximum (in ClCCl) of 636 nm.

Consider `CCOC(=O)c1ccc2nc(/N=N/c3ccc(N(CC)CC)cc3)sc2c1`, for which the emission maximum is 582 nm (in CC#N) and 571 nm (in ClCCl).
